From US20240382471A1, “GLUCAGON-LIKE PEPTIDE-1 RECEPTOR MODULATORS AND USES THEREOF” (HEPAGENE THERAPEUTICS (HK) LIMITED, priority 2021, published 2024)

Biological target: GLP1R (Homo sapiens, UniProt P43220)
Test: GLP1R/CRE-Luc luciferase reporter gene assay (agonist activity)
Assay type: cell-based
Parameters: host or cells: HKE293 (so in the source)
Settings: HKE293-Human GLP1R/CRE-luc cells, 5 h at 37° C., read-out: EC50 (nM) Assay 2
Protocol: GLP1R-mediated agonist activity was determined with a cell-based functional assay utilizing a britelite plus luciferase reporter gene assay system. The stable cell line overexpress GLP1R and target response element. The stimulation with GLP1R agonist results in the upregulation of intracellular cAMP, which regulate the activities of cAMP-response element binding protein (CREB) and CREB-Luc. Reagents and equipment used in the assay are listed below, followed by the protocol.
• 1) Cell Line: HKE293-Human GLP1R/CRE-luc • 2) Complete Medium: DMEM+10% FBS+1×Penicillin-Streptomycin+400 μg/mL G418
• a) Seed HKE293-Human GLP1R/CRE-luc cells at 20,000 cells/well into 384 well assay plate (6007680-50, PE) using complete medium and incubate overnight. • b) Prepare 6×compound working solution with Medium. • c) Add 5 μL 6×compound working solution into cell plate, incubate 5 h at 37° C. • d) Add 20 μl britelite plus Luciferase Assay Reagent into each well of 384-well assay plate. • e) Record the luminescence value on Envision plate reader.
• 3.1% Activity is calculated as follow:
% Activity=(Signalcmpd−SignalAve_VC)/(SignalAve_PC−SignalAve_VC)×100. • 3.2 Calculate EC50 and Plot effect-dose curve of cmpds:
Y=Bottom+(Top−Bottom)/(1+10^((Log EC50−X)*HillSlope)) • X: log of agonist concentration; Y: % Activity.

Chain of GLP1R (P43220 24-463): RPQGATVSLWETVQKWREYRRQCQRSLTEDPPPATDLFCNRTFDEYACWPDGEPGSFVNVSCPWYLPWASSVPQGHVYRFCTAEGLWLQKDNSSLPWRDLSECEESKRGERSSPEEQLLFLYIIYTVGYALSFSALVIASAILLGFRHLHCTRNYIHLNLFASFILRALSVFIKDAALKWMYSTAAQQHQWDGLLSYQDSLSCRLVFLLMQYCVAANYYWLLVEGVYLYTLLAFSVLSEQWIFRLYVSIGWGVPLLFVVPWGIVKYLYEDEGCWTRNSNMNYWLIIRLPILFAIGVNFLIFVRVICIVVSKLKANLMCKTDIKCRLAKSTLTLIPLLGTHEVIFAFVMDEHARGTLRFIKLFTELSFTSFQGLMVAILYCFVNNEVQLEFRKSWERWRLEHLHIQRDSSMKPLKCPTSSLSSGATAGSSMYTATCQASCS

| SMILES | EC50 [nM] |
| --- | --- |
| COc1cc(C#N)ccc1COc1cncc(C23CCN(Cc4nc5ccc(C(=O)O)cc5n4C[C@@H]4CCO4)CC2C3)n1 (stereo partly drawn) [Compound 1-21, 2-((6-(6-((4-cyano-2-methoxybenzyl)oxy)pyrazin-2-yl)-3-azabicyclo[4.1.0]heptan-3-yl)methyl)-1-(((S)-oxetan-2-yl)methyl)-1H-benzo[d]imidazole-6-carboxylic acid] | 39.1 |
| COc1cc(C#N)ccc1COc1cccc(C23CCN(Cc4nc5c(OC(F)(F)F)cc(C(=O)O)cc5n4C[C@@H]4CCO4)CC2C3)n1 (stereo partly drawn) [Compound 1-22, 2-((6-(6-((4-cyano-2-methoxybenzyl)oxy)pyridin-2-yl)-3-azabicyclo[4.1.0]heptan-3-yl)methyl)-1-(((S)-oxetan-2-yl)methyl)-4-(trifluoromethoxy)-1H-benzo[d]imidazole-6-carboxylic acid] | 14.4 |
| COc1cc(C#N)ccc1COc1nccc(C23CCN(Cc4nc5ccc(C(=O)O)cc5n4C[C@@H]4CCO4)CC2C3)n1 (stereo partly drawn) [Compound 1-27, 2-((6-(2-((4-cyano-2-methoxybenzyl)oxy)pyrimidin-4-yl)-3-azabicyclo[4.1.0]heptan-3-yl)methyl)-1-(((S)-oxetan-2-yl)methyl)-1H-benzo[d]imidazole-6-carboxylic acid] | 11.7 |
| COc1cc(C#N)ccc1COc1nc(C23CCN(Cc4nc5c(OC)cc(C(=O)O)cc5n4C[C@@H]4CCO4)CC2C3)ccc1F (stereo partly drawn) [Compound 1-28, 2-((6-(6-((4-cyano-2-methoxybenzyl)oxy)-5-fluoropyridin-2-yl)-3-azabicyclo[4.1.0]heptan-3-yl)methyl)-4-methoxy-1-(((S)-oxetan-2-yl)methyl)-1H-benzo[d]imidazole-6-carboxylic acid] | 0.46 |
| COc1c(COc2cccc(C34CCN(Cc5nc6ccc(C(=O)O)cc6n5C[C@@H]5CCO5)CC3C4)n2)ccc(C#N)c1F (stereo partly drawn) [Compound 1-29, 2-((6-(6-((4-cyano-3-fluoro-2-methoxybenzyl)oxy)pyridin-2-yl)-3-azabicyclo[4.1.0]heptan-3-yl)methyl)-1-(((S)-oxetan-2-yl)methyl)-1H-benzo[d]imidazole-6-carboxylic acid] | 168 |
| COc1cc(C#N)ccc1COc1nc(C23CCN(Cc4nc5c(OC)cc(C(=O)O)cc5n4C[C@@H]4CCO4)CC2C3)ccc1OC (stereo partly drawn) [Compound 1-30, 2-((6-(6-((4-cyano-2-methoxybenzyl)oxy)-5-methoxypyridin-2-yl)-3-azabicyclo[4.1.0]heptan-3-yl)methyl)-4-methoxy-1-(((S)-oxetan-2-yl)methyl)-1H-benzo[d]imidazole-6-carboxylic acid] | 28.1 |
| COc1cc(C#N)ccc1COc1nc(C23CCN(Cc4nc5ccc(C(=O)O)cc5n4C[C@@H]4CCO4)CC2C3)ncc1F (stereo partly drawn) [Compound 1-31, 2-((6-(4-((4-cyano-2-methoxybenzyl)oxy)-5-fluoropyrimidin-2-yl)-3-azabicyclo[4.1.0]heptan-3-yl)methyl)-1-(((S)-oxetan-2-yl)methyl)-1H-benzo[d]imidazole-6-carboxylic acid] | 132 |
| COc1cc(C#N)ccc1COc1nc(C23CCN(Cc4nc5c(OC)cc(C(=O)O)cc5n4C[C@@H]4CCO4)CC2C3)ncc1C (stereo partly drawn) [Compound 1-33, 2-((6-(4-((4-cyano-2-methoxybenzyl)oxy)-5-methylpyrimidin-2-yl)-3-azabicyclo[4.1.0]heptan-3-yl)methyl)-4-methoxy-1-(((S)-oxetan-2-yl)methyl)-1H-benzo[d]imidazole-6-carboxylic acid] | 105 |
| COc1cc(C(F)(F)F)ccc1COc1ccnc(C23CCN(Cc4nc5c(OC)cc(C(=O)O)cc5n4C[C@@H]4CCO4)CC2C3)n1 (stereo partly drawn) [Compound 1-34, 4-methoxy-2-((6-(4-((2-methoxy-4-(trifluoromethyl)benzyl)oxy)pyrimidin-2-yl)-3-azabicyclo[4.1.0]heptan-3-yl)methyl)-1-(((S)-oxetan-2-yl)methyl)-1H-benzo[d]imidazole-6-carboxylic acid] | 1.06 |
| COc1nc(C#N)ccc1COc1ccnc(C23CCN(Cc4nc5c(OC)cc(C(=O)O)cc5n4C[C@@H]4CCO4)CC2C3)n1 (stereo partly drawn) [Compound 1-35, 2-((6-(4-((6-cyano-2-methoxypyridin-3-yl)methoxy)pyrimidin-2-yl)-3-azabicyclo[4.1.0]heptan-3-yl)methyl)-4-methoxy-1-(((S)-oxetan-2-yl)methyl)-1H-benzo[d]imidazole-6-carboxylic acid] | 2.68 |

The next lines start with the values.

| EC50 [nM] | SMILES |
| --- | --- |
| 13.4 | COc1cc(C#N)ccc1COc1cccc(C23CCN(Cc4nc5c(C)cc(C(=O)O)cc5n4C[C@@H]4CCO4)CC2C3)n1 (stereo partly drawn) [Compound 1-18, 2-((6-(6-((4-cyano-2-methoxybenzyl)oxy)pyridin-2-yl)-3-azabicyclo[4.1.0]heptan-3-yl)methyl)-4-methyl-1-(((S)-oxetan-2-yl)methyl)-1H-benzo[d]imidazole-6-carboxylic acid] |
| 19 | COc1cc(C#N)ccc1COc1cccc(C23CCN(Cc4nc5c(C6CC6)cc(C(=O)O)cc5n4C[C@@H]4CCO4)CC2C3)n1 (stereo partly drawn) [Compound 1-19, 2-((6-(6-((4-cyano-2-methoxybenzyl)oxy)pyridin-2-yl)-3-azabicyclo[4.1.0]heptan-3-yl)methyl)-4-cyclopropyl-1-(((S)-oxetan-2-yl)methyl)-1H-benzo[d]imidazole-6-carboxylic acid] |
| 9.67 | COc1cc(C#N)ccc1COc1cccc(C23CCN(Cc4nc5c(C(C)=O)cc(C(=O)O)cc5n4C[C@@H]4CCO4)CC2C3)n1 (stereo partly drawn) [Compound 1-20, 4-acetyl-2-((6-(6-((4-cyano-2-methoxybenzyl)oxy)pyridin-2-yl)-3-azabicyclo[4.1.0]heptan-3-yl)methyl)-1-(((S)-oxetan-2-yl)methyl)-1H-benzo[d]imidazole-6-carboxylic acid] |
| 3.05 | COc1cc(C#N)ccc1COc1cccc(C23CCN(Cc4nc5c(F)cc(C(=O)O)cc5n4C[C@@H]4CCO4)CC2C3)n1 (stereo partly drawn) [Compound 1-23, 2-((6-(6-((4-cyano-2-methoxybenzyl)oxy)pyridin-2-yl)-3-azabicyclo[4.1.0]heptan-3-yl)methyl)-4-fluoro-1-(((S)-oxetan-2-yl)methyl)-1H-benzo[d]imidazole-6-carboxylic acid] |
| 0.37 | COc1cc(C#N)ccc1COc1cccc(C23CCN(Cc4nc5c(OC)cc(C(=O)O)cc5n4C[C@@H]4CCO4)CC2C3)n1 (stereo partly drawn) [Compound 1-24, 2-((6-(6-((4-cyano-2-methoxybenzyl)oxy)pyridin-2-yl)-3-azabicyclo[4.1.0]heptan-3-yl)methyl)-4-methoxy-1-(((S)-oxetan-2-yl)methyl)-1H-benzo[d]imidazole-6-carboxylic acid] |
| 0.95 | COc1cc(C#N)ccc1COc1cccc(C23CCN(Cc4nc5c(Cl)cc(C(=O)O)cc5n4C[C@@H]4CCO4)CC2C3)n1 (stereo partly drawn) [Compound 1-25, 4-chloro-2-((6-(6-((4-cyano-2-methoxybenzyl)oxy)pyridin-2-yl)-3-azabicyclo[4.1.0]heptan-3-yl)methyl)-1-(((S)-oxetan-2-yl)methyl)-1H-benzo[d]imidazole-6-carboxylic acid] |
| 0.49 | [2H]C([2H])([2H])Oc1cc(C(=O)O)cc2c1nc(CN1CCC3(c4cccc(OCc5ccc(C#N)cc5OC)n4)CC3C1)n2C[C@@H]1CCO1 (stereo partly drawn) [Compound 1-32, 2-((6-(6-((4-cyano-2-methoxybenzyl)oxy)pyridin-2-yl)-3-azabicyclo[4.1.0]heptan-3-yl)methyl)-4-(methoxy-d3)-1-(((S)-oxetan-2-yl)methyl)-1H-benzo[d]imidazole-6-carboxylic acid] |
